Results published in US7034070B2, “Arylalkyl aminofunctional silanes for epoxy laminates” (priority 2002, dated 2006).

Test: Water solubility test (aqueous solution clarity and stability)
Type: physicochemical
Settings: for time the solution stayed clear (before turning hazy): 1.0 gram in 100 ml distilled water with 1% glacial acetic acid, ambient temperatures; for time until the slightly hazy solution turned clear: 1.0 gram sample in 100 ml distilled water acidified with 1% glacial acetic acid, stirring
Description: With stirring, 1.0 gram sample from Example 1 was added gradually to 100 ml of distilled water acidified with 1% glacial acetic acid. The solution was slightly hazy at the beginning but turned clear after 45 min. while the commercial product Z-6032 (Dow Coming) under similar conditions turned clear in 20 min.

Compound	time the solution stayed clear (before turning hazy)	time until the slightly hazy solution turned clear [min]
CH3CH2C6H4CH2NH(CH2)2NH(CH2)3Si(OCH3)3•HCl [Example 1]	more than two weeks	45
C=Cc1ccc(CNCCNCCC[Si](OC)(OC)OC)cc1.Cl [Example Z-6032, CH2═CHC6H4CH2NH(CH2)2NH(CH2)3Si(OCH3)3•HCl]	less than 1 week	20
